These results are taken from patent publication US20140243332A1, “METHODS OF TREATING CANCERS CHARACTERIZED BY ABERRENT ROS1 ACTIVITY” (Oregon Health & Science University, priority 2013, published 2014).

Assay [1] deals with T1, Ba/F3 FIG-ROS cells (Homo sapiens, UniProt P08922).
T1 construct: fused on or other part: GFP is co-expressed from an IRES in pMIG and is not fused; Q9HD26 (Golgi-associated PDZ and coiled-coil motif-containing protein)
As to the kind of experiment: Apoptosis induction (Annexin V / 7-AAD), Ba/F3 FIG-ROS. It counts as cell-based. The settings on record: 15 nM, 48 hours. As for the experimental part: FIG. 5A is a set of three bar graphs depicting the induction of apoptosis in Ba/F3 FIG-ROS, Ba/F3 SLC-ROS and Ba/F3 ALK F1174L cells after 48 hours of treatment with the indicated doses of the indicated compounds. The number of cells that were Annexin V and 7-AAD positive after inhibitor treatment was normalized to number of cells staining positive with these markers with vehicle treatment (basal). A minimum of 2000 cells were counted per condition. Rate of apoptosis is shown as fold over basal. Basal apoptosis in Ba/F3 FIG-ROS, Ba/F3 SLC-ROS and Ba/F3 ALK F1174 cells was 3.6%, 2.8% and 1.2% respectively.

The target of assay [2] is T1, Ba/F3 FIG-ROS cells. Description: Cell viability (MTS) assay, Ba/F3 FIG-ROS. Format: cell-based. From the text:
Ba/F3 cell lines were maintained at densities of 0.5×10^6 to 1.5×10^6 per ml of media. FIG-ROS and SLC-ROS Ba/F3 lines were created by infecting the parental Ba/F3 with retrovirus expressing either human FIG-ROS-S (indicated FIG-ROS herein) or SLC-ROS-S (indicated SLC-ROS herein). Stable transfectant lines were sorted for GFP expression on a FACS Aria® flow cytometer. Cells were counted daily using Guava ViaCount® reagent and Guava Personal Cell Analysis® flow cytometer. […] Early passage NIH3T3 cells were infected with retrovirus expressing either FIG-ROS or SLC-ROS and sorted for GFP expression as described above for Ba/F3 cells. […] This media is referred to as RPMI-10% FBS herein.
The FIG-ROS-S (FIG-ROS) fusion protein has been reported in non-small cell lung cancers (NSCLC), glioblastomas, and cholangiocarcinomas.

Where two headings read alike, the source gives them in different places.

T1 sequence (P08922 whole entry, change not shown, the tested form may be a part): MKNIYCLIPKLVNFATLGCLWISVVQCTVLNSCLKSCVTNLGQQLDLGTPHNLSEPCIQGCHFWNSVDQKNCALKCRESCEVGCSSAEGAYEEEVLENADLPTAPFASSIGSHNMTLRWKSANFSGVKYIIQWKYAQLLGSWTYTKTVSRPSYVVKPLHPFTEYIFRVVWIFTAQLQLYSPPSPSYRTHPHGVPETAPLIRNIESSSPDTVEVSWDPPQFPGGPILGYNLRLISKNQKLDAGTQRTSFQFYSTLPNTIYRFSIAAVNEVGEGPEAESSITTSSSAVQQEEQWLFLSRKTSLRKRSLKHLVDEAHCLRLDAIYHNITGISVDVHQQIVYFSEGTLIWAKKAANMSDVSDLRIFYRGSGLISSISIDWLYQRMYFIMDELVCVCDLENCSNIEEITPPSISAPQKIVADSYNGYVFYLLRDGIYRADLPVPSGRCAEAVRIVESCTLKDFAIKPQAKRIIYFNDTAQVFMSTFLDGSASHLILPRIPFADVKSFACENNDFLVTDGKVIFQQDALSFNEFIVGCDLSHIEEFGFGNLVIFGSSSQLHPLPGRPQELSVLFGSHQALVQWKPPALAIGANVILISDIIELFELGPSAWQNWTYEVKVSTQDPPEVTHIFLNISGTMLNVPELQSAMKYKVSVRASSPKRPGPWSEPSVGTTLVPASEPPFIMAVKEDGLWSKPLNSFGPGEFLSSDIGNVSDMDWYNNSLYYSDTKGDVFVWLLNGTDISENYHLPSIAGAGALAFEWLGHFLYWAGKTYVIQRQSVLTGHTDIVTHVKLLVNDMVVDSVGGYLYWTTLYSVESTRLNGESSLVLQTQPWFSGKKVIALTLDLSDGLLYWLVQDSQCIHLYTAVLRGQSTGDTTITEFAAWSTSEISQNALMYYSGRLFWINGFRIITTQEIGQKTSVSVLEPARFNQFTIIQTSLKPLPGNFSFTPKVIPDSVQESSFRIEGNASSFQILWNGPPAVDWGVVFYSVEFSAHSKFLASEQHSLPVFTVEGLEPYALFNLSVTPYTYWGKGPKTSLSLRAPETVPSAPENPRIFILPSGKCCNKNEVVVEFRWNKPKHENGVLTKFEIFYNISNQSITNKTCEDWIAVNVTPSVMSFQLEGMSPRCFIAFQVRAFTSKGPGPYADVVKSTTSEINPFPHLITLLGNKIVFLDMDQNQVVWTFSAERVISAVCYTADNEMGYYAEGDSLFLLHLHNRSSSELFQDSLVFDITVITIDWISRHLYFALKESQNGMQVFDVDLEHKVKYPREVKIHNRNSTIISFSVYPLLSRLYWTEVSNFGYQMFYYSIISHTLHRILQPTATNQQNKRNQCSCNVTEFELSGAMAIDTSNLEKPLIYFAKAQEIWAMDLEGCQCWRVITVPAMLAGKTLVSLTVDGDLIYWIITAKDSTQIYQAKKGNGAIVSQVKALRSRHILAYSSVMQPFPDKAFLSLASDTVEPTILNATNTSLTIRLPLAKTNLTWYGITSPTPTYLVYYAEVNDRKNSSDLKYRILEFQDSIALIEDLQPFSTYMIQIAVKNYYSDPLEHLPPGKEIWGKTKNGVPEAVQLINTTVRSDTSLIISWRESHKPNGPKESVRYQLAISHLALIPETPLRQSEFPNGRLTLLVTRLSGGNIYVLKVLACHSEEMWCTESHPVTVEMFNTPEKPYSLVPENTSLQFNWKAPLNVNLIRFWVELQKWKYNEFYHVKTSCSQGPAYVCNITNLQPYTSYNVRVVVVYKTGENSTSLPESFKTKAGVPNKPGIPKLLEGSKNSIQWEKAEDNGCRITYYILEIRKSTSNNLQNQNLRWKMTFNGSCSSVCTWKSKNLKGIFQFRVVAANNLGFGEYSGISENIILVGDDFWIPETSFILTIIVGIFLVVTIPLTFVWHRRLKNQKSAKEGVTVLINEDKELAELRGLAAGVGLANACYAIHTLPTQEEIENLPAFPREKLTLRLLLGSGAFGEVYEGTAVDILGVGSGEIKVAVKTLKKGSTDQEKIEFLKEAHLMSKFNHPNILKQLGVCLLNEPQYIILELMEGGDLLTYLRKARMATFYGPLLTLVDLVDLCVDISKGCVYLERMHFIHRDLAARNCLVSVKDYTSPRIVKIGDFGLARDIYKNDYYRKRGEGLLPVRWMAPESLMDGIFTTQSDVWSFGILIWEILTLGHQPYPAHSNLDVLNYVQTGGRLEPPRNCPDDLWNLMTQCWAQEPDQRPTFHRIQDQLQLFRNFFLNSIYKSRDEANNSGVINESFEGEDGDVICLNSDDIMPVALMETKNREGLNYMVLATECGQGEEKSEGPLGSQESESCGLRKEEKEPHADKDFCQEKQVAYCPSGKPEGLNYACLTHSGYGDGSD

Turning to `COc1cc2c(Oc3ccc(NC(=O)C4(C(=O)Nc5ccc(F)cc5)CC4)cc3F)ccnc2cc1OCCCN1CCOCC1` [foretinib, N1′-[3-fluoro-4-[[6-methoxy-7-(3-morpholinopropoxy)-4-quinolyl]oxy]phenyl]-N1-(4-fluorophenyl)cyclopropane-1,1-dicarboxamide], the apoptosis induction result in assay [1] is “induced apoptosis”. Also, the GI50 in assay [2] (Table 3, mutant: None (Ba/F3 FIG-ROS), nM, read-out: IC50 (the source's name)) was determined as 2.03 nM; in assay [2] (read-out: IC50 (50% growth inhibitory concentration), Ba/F3 FIG-ROS cells, 72 hours, MTS), 2 nM; in assay [2] (read-out: IC50 (50% growth inhibitory concentration), Ba/F3 FIG-ROS cells, 72 hours, MTS, listed as Foretinib), 2.2 nM.
